In patent US11236087B2, “Highly active pyrazolo-piperidine substituted indole-2-carboxamides active against the hepatitis B virus (HBV)” (AiCuris GmbH & Co. KG, priority 2017, dated 2022):

Legend:
HBV = experiment: Determination of HBV DNA from the supernatants of HepAD38 cells (anti-HBV activity); type: cell-based, hepatitis B virus; settings: Hepatitis B virus, 144 h; HBV DNA in HepAD38 supernatant, day 6, qPCR; read-out: Cell Activity (EC50)
Summary of the method: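 Supernatant viral DNA was measured by LightCycler qPCR, calibrated with pCH-9/3091 plasmid, 6 days after tetracycline-free HepAD38 cultures received half-log serial compound dilutions; untreated and tetracycline-treated cells served as controls; EC50 was fitted by non-linear regression.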

HBV core protein = target: T1, HBV core protein (UniProt P03146); experiment: Biochemical capsid assembly assay (fluorescence quenching); design: species or system hepatitis B virus; settings: read-out: Assembly Activity (IC50); BODIPY-FL labelled core protein, 300 μM NaCl, read 6 min after start
T1 construct: fused on or other part: BODIPY-FL maleimide label on the C-terminal Cys150
T1 sequence (P03146 whole entry, looked up, the tested form may be a part): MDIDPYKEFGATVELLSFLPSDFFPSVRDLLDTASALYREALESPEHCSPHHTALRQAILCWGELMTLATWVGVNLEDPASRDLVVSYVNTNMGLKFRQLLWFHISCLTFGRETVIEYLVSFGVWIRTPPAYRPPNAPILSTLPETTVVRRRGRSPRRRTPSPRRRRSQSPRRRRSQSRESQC
Summary of the method: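 Assembly-induced fluorescence quenching (477/525 nm) was measured 6 min after NaCl addition ([…]), against 2.5 M and 0 M NaCl controls. The labelled C150 core dimer (truncated at 149) at 1.0-2.0 μM in HEPES pH 7.5 was tested with eight half-log compound dilutions, top 100, 31.6 or 10 μM. EC50 was obtained by non-linear fit from triplicates run three times.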

[1] = Cell viability assay (AlamarBlue) in HepAD38 cells; settings: human

SMILES | EC50 (HBV) [µM] | IC50 (HBV core protein) [µM] | CC50 at 6 days [1] [µM]
O=C(NCCO)c1n[nH]c2c1CN(C(=O)c1cc3ccccc3[nH]1)CC2 [Example 107, N-(2-hydroxyethyl)-5-(1H-indole-2-carbonyl)-1H,4H,5H,6H,7H-pyrazolo[4,3-c]pyridine-3-carboxamide] | 1 to 25 | < 100 | > 100
Cc1cc(F)cc2[nH]c(C(=O)N3CCc4n[nH]c(C(=O)N(C)C5CC5)c4C3)cc12 [Example 327, N-cyclopropyl-5-(6-fluoro-4-methyl-1H-indole-2-carbonyl)-N-methyl-2H,4H,5H,6H,7H-pyrazolo[4,3-c]pyridine-3-carboxamide] | < 1 | < 5 | > 10
CCc1cc(F)cc2[nH]c(C(=O)N3CCc4[nH]nc(C(=O)N(C)C5(COC)CC5)c4C3)cc12 [Example 272, 5-(4-ethyl-6-fluoro-1H-indole-2-carbonyl)-N-[1-(methoxymethyl)cyclopropyl]-N-methyl-1H,4H,5H,6H,7H-pyrazolo[4,3-c]pyridine-3-carboxamide] | < 1 | < 5 | > 10
O=C(c1cc2ccccc2[nH]1)N1CCc2[nH]nc(NCC3CCOCC3)c2C1 [Example 81, 5-(1H-indole-2-carbonyl)-N-[(oxan-4-yl)methyl]-1H,4H,5H,6H,7H-pyrazolo[4,3-c]pyridin-3-amine] | 1 to 25 | < 100 | > 100
CCc1cc(F)cc2[nH]c(C(=O)N3CCc4n[nH]c(C(=O)N(C)C5CC5)c4C3)cc12 [Example 330, N-cyclopropyl-5-(4-ethyl-6-fluoro-1H-indole-2-carbonyl)-N-methyl-2H,4H,5H,6H,7H-pyrazolo[4,3-c]pyridine-3-carboxamide] | < 1 | < 5 | > 10
CCOCC1(N(C)C(=O)c2[nH]nc3c2CN(C(=O)c2cc4cccc(F)c4[nH]2)CC3)CC1 [Example 367, N-[1-(ethoxymethyl)cyclopropyl]-5-(7-fluoro-1H-indole-2-carbonyl)-N-methyl-2H,4H,5H,6H,7H-pyrazolo[4,3-c]pyridine-3-carboxamide] | < 1 | < 5 | > 10
CN(C(=O)c1n[nH]c2c1CN(C(=O)c1cc3ccccc3[nH]1)CC2)[C@H]1CC[C@H](O)CC1 [Example 173, 5-(1H-indole-2-carbonyl)-N-methyl-N-[(1r,4r)-4-hydroxycyclohexyl]-1H,4H,5H,6H,7H-pyrazolo[4,3-c]pyridine-3-carboxamide] | 1 to 25 | < 100 | > 10
CCc1cccc2[nH]c(C(=O)N3CCc4[nH]nc(C(=O)N(C)CCO)c4C3)cc12 [Example 62, 5-(4-ethyl-1H-indole-2-carbonyl)-N-(2-hydroxyethyl)-N-methyl-1H,4H,5H,6H,7H-pyrazolo[4,3-c]pyridine-3-carboxamide] | < 1 | < 5 | > 100
O=C(c1cc2ccccc2[nH]1)N1CCc2[nH]nc(C(=O)N3CCS(=O)(=O)CC3)c2C1 [Example 158, 4-[5-(1H-indole-2-carbonyl)-1H,4H,5H,6H,7H-pyrazolo[4,3-c]pyridine-3-carbonyl]-1lambda6-thiomorpholine-1,1-dione] | 1 to 25 | < 100 | > 10
O=C(c1cc2ccccc2[nH]1)N1CCc2[nH]nc(C(=O)N3CC[C@@H](O)C3)c2C1 [Example 156, (3R)-1-[5-(1H-indole-2-carbonyl)-1H,4H,5H,6H,7H-pyrazolo[4,3-c]pyridine-3-carbonyl]pyrrolidin-3-ol] | 1 to 25 | < 100 | > 10
COCC1(NC(=O)c2n[nH]c3c2CN(C(=O)c2cc4ccccc4[nH]2)CC3)CC1 [Example 202, 5-(1H-indole-2-carbonyl)-N-[1-(methoxymethyl)cyclopropyl]-1H,4H,5H,6H,7H-pyrazolo[4,3-c]pyridine-3-carboxamide] | < 1 | < 5 | > 10
CN(C(=O)c1n[nH]c2c1CN(C(=O)c1cc3ccccc3[nH]1)CC2)C1(COCC(F)(F)F)CC1 [Example 359, 5-(1H-indole-2-carbonyl)-N-methyl-N-{1-[(2,2,2-trifluoroethoxy)methyl]cyclopropyl}-1H,4H,5H,6H,7H-pyrazolo[4,3-c]pyridine-3-carboxamide] | < 1 | < 5 | > 10
COCC1(N(C)C(=O)c2n[nH]c3c2CN(C(=O)c2cc4cc(F)c(Cl)cc4[nH]2)CC3)CC1 [Example 265, 5-(6-chloro-5-fluoro-1H-indole-2-carbonyl)-N-[1-(methoxymethyl)cyclopropyl]-N-methyl-1H,4H,5H,6H,7H-pyrazolo[4,3-c]pyridine-3-carboxamide] | < 1 | < 5 | > 10
CC(O)c1cccc2[nH]c(C(=O)N3CCc4[nH]nc(C(=O)N(C)CCO)c4C3)cc12 (stereo not drawn) [Example 50, N-(2-hydroxyethyl)-5-[4-(1-hydroxyethyl)-1H-indole-2-carbonyl]-N-methyl-1H,4H,5H,6H,7H-pyrazolo[4,3-c]pyridine-3-carboxamide] | < 100 | < 100 | > 32
CC1Cc2[nH]nc(-c3cscn3)c2CN1C(=O)c1cc2ccccc2[nH]1 (stereo not drawn) [Example 38, 2-[6-methyl-3-(1,3-thiazol-4-yl)-1H,4H,5H,6H,7H-pyrazolo[4,3-c]pyridine-5-carbonyl]-1H-indole] | < 1 | < 5 | 100
O=C(c1cc2ccccc2[nH]1)N1CCc2n[nH]c(C(=O)N3CCCCC34CC4)c2C1 [Example 279, 2-(3-{4-azaspiro[2.5]octane-4-carbonyl}-2H,4H,5H,6H,7H-pyrazolo[4,3-c]pyridine-5-carbonyl)-1H-indole] | < 1 | < 5 | > 10
NC(=O)c1n[nH]c2c1CN(C(=O)c1cc3ccccc3[nH]1)CC2 [Example 106, 5-(1H-indole-2-carbonyl)-1H,4H,5H,6H,7H-pyrazolo[4,3-c]pyridine-3-carboxamide] | < 100 | < 100 | > 100
CN(C(=O)c1n[nH]c2c1CN(C(=O)c1cc3ccccc3[nH]1)CC2)[C@@H]1CCCC[C@H]1O (racemic) [Example 192, N-[(±)-2-hydroxycyclohexyl]-5-(1H-indole-2-carbonyl)-N-methyl-1H,4H,5H,6H,7H-pyrazolo[4,3-c]pyridine-3-carboxamide] | < 1 | 5 to 10 | > 10
COCC1(N(C)C(=O)c2n[nH]c3c2CN(C(=O)c2cc4c(F)cc(Cl)cc4[nH]2)CC3)CC1 [Example 305, 5-(6-chloro-4-fluoro-1H-indole-2-carbonyl)-N-[1-(methoxymethyl)cyclopropyl]-N-methyl-1H,4H,5H,6H,7H-pyrazolo[4,3-c]pyridine-3-carboxamide] | < 1 | < 5 | > 10
CN(OCCO)C(=O)c1n[nH]c2c1CN(C(=O)c1cc3c(Cl)cccc3[nH]1)CC2 [Example 196, 5-(4-chloro-1H-indole-2-carbonyl)-N-(2-hydroxyethoxy)-N-methyl-1H,4H,5H,6H,7H-pyrazolo[4,3-c]pyridine-3-carboxamide] | < 1 | < 5 | > 10
O=C(c1cc2ccccc2[nH]1)N1CCc2[nH]nc(C(=O)N3CCCC3)c2C1 [Example 99, 2-[3-(pyrrolidine-1-carbonyl)-1H,4H,5H,6H,7H-pyrazolo[4,3-c]pyridine-5-carbonyl]-1H-indole] | 1 to 25 | 5 to 10 | > 100
CN(C(=O)c1n[nH]c2c1CN(C(=O)c1cc3ccccc3[nH]1)CC2)C1CC1 [Example 232, N-cyclopropyl-5-(1H-indole-2-carbonyl)-N-methyl-1H,4H,5H,6H,7H-pyrazolo[4,3-c]pyridine-3-carboxamide] | < 1 | < 5 | > 10
CN(C(=O)c1n[nH]c2c1CN(C(=O)c1cc3ccccc3[nH]1)CC2)C1(C(F)(F)F)CC1 [Example 310, 5-(1H-indole-2-carbonyl)-N-methyl-N-[1-(trifluoromethyl)cyclopropyl]-1H,4H,5H,6H,7H-pyrazolo[4,3-c]pyridine-3-carboxamide] | 1 to 25 | < 100 | > 10
CN(CCO)C(=O)c1n[nH]c2c1CN(C(=O)c1cc3c(Cl)c(F)ccc3[nH]1)CC2 [Example 51, 5-(4-chloro-5-fluoro-1H-indole-2-carbonyl)-N-(2-hydroxyethyl)-N-methyl-1H,4H,5H,6H,7H-pyrazolo[4,3-c]pyridine-3-carboxamide] | < 1 | < 5 | > 100
Cc1noc(-c2n[nH]c3c2CN(C(=O)c2cc4ccccc4[nH]2)CC3)n1 [Example 116, 2-[3-(3-methyl-1,2,4-oxadiazol-5-yl)-1H,4H,5H,6H,7H-pyrazolo[4,3-c]pyridine-5-carbonyl]-1H-indole] | < 100 | 5 to 10 | > 100
COCCC1(N(C)C(=O)c2[nH]nc3c2CN(C(=O)c2cc4ccccc4[nH]2)CC3)CC1 [Example 248, 5-(1H-indole-2-carbonyl)-N-[1-(2-methoxyethyl)cyclopropyl]-N-methyl-2H,4H,5H,6H,7H-pyrazolo[4,3-c]pyridine-3-carboxamide] | < 1 | < 5 | > 10
